Measurements as given in ChEMBL document CHEMBL1146870, “N-Tetrahydroquinolinyl, N-quinolinyl and N-isoquinolinyl biaryl carboxamides as antagonists of TRPV1” (Bioorg Med Chem Lett, 2006).

Legend:
[1] = target: T1, Transient receptor potential cation channel subfamily V member 1 (Homo sapiens, UniProt Q8NER1); test: Antagonist activity against human TRPV1 assessed as inhibition of capsaicin-induced calcium influx by FLIPR assay; format: functional
Homo sapiens = species on record: Homo sapiens; test: Intrinsic clearance in human liver microsomes; format: ADME, Microsome
[2] = target: Transient receptor potential cation channel subfamily V member 1 (Cavia porcellus) (UniProt Q6R5A3)
Chain of Transient receptor potential cation channel subfamily V member 1 (Cavia porcellus) (Q6R5A3 whole entry): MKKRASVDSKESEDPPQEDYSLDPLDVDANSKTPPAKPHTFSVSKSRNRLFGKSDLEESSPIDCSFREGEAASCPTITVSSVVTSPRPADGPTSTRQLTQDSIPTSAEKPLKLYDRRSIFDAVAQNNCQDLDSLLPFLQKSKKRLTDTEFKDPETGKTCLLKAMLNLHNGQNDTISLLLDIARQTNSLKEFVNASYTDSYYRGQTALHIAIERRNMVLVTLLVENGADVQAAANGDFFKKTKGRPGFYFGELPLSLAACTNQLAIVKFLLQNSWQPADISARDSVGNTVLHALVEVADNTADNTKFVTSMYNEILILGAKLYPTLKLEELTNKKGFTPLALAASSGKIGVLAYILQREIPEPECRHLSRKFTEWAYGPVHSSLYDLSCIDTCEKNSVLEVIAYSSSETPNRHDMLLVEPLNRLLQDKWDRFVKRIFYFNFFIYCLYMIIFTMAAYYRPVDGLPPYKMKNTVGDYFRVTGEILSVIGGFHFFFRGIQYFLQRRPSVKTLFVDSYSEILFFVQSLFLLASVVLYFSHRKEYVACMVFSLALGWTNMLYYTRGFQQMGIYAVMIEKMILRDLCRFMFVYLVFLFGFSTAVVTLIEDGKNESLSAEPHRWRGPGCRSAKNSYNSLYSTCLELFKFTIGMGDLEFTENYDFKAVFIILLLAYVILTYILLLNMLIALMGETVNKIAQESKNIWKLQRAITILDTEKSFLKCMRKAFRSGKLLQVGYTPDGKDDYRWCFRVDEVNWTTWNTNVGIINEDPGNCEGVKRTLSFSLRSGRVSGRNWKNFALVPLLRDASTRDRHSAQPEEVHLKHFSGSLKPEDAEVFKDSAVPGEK
Description: Antagonist activity against guinea pig TRPV1 assessed as inhibition of capsaicin-induced calcium influx by FLIPR assay

Cytochrome P450 2C9 = Cytochrome P450 2C9 (Homo sapiens, UniProt P11712); test: Inhibition of cytochrome P450 2C9; format: ADME
Chain of Cytochrome P450 2C9 (P11712 whole entry): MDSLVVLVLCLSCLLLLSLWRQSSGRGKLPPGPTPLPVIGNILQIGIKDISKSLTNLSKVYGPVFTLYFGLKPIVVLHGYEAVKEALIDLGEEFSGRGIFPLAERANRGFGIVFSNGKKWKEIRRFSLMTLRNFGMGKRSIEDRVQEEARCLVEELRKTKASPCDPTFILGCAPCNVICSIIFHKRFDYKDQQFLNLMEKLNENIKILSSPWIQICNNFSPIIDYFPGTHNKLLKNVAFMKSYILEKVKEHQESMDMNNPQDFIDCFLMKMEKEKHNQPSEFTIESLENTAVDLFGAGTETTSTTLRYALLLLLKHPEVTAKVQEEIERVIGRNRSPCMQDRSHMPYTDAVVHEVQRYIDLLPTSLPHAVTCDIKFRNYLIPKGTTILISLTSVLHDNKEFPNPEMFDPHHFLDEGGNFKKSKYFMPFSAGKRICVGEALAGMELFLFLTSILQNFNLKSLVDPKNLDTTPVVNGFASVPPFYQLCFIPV

Cytochrome P450 2D6 = Cytochrome P450 2D6 (Homo sapiens, UniProt P10635); test: Inhibition of cytochrome P450 2D6; format: ADME
Chain of Cytochrome P450 2D6 (P10635 whole entry): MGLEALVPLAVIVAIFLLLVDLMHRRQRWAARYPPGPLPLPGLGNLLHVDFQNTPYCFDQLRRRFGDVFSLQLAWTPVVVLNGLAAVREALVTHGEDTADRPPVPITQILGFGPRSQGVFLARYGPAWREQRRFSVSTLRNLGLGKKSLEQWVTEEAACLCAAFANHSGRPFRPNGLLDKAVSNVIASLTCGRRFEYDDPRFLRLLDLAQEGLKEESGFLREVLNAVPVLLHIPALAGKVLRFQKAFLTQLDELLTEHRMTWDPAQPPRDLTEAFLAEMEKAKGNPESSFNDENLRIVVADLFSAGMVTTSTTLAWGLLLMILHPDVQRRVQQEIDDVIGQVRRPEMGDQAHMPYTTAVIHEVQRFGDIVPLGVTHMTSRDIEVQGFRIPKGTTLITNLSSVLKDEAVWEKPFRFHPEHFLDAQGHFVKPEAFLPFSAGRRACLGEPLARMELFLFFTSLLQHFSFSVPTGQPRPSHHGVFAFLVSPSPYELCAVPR

Cytochrome P450 3A4 = Cytochrome P450 3A4 (Homo sapiens, UniProt P08684); test: Inhibition of cytochrome P450 3A4; format: ADME
Chain of Cytochrome P450 3A4 (P08684 whole entry): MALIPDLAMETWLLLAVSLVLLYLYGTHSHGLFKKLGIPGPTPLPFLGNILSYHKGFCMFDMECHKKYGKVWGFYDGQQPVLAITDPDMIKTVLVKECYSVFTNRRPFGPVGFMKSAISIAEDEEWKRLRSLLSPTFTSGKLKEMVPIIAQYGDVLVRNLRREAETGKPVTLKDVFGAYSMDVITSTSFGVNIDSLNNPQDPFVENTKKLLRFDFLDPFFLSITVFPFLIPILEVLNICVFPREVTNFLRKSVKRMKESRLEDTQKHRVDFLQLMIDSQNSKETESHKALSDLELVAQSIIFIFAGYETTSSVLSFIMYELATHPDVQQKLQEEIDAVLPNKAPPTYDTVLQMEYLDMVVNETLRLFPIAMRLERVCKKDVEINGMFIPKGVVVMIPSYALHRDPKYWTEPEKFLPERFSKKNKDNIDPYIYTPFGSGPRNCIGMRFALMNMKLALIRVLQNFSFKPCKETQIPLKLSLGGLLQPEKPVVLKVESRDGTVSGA

[3] = target: Transient receptor potential cation channel subfamily V member 1 (Rattus norvegicus) (UniProt O35433)
Chain of Transient receptor potential cation channel subfamily V member 1 (Rattus norvegicus) (O35433 whole entry): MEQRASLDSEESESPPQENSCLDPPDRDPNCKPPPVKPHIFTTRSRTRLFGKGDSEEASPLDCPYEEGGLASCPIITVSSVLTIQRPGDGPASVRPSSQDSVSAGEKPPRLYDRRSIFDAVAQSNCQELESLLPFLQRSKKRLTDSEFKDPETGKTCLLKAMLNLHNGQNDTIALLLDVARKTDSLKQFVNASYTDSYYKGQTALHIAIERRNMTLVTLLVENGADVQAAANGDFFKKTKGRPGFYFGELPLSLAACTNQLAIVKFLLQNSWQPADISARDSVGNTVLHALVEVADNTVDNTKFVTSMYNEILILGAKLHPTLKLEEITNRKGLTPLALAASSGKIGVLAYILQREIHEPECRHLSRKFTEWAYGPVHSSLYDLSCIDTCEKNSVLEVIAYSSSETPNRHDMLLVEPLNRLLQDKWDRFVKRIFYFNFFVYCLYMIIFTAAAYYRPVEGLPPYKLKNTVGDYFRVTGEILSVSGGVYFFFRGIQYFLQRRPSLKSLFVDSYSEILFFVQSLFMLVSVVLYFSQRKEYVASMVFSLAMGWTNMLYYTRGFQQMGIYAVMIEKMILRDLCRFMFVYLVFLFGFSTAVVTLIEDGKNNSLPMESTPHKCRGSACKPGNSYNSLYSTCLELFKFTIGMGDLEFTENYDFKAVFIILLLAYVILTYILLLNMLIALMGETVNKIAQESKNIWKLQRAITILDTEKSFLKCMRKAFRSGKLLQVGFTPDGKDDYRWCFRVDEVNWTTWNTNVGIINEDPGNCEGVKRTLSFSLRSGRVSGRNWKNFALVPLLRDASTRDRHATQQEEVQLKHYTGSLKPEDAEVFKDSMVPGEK
Description: Antagonist activity against rat TRPV1 assessed as inhibition of capsaicin-induced calcium influx by FLIPR assay

Cytochrome P450 1A2 = target: T2, Cytochrome P450 1A2 (Homo sapiens, UniProt P05177); test: Inhibition of cytochrome P450 1A2; format: ADME
T2 sequence (P05177 whole entry): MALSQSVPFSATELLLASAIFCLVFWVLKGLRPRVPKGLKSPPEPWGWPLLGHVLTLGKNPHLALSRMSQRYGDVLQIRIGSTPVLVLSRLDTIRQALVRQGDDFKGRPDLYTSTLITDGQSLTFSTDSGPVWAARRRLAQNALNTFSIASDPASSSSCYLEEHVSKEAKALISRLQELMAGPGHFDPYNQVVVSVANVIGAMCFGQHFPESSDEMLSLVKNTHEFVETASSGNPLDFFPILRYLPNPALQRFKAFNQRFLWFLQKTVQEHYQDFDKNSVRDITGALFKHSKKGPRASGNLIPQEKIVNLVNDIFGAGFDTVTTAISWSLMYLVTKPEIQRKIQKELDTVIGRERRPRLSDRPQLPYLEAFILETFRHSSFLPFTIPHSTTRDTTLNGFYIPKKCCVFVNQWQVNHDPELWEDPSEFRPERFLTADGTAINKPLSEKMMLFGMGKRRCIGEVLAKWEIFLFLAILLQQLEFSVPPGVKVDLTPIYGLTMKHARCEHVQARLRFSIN

Cytochrome P450 2C19 = Cytochrome P450 2C19 (Homo sapiens, UniProt P33261); test: Inhibition of cytochrome P450 2C19; format: ADME
Chain of Cytochrome P450 2C19 (P33261 whole entry): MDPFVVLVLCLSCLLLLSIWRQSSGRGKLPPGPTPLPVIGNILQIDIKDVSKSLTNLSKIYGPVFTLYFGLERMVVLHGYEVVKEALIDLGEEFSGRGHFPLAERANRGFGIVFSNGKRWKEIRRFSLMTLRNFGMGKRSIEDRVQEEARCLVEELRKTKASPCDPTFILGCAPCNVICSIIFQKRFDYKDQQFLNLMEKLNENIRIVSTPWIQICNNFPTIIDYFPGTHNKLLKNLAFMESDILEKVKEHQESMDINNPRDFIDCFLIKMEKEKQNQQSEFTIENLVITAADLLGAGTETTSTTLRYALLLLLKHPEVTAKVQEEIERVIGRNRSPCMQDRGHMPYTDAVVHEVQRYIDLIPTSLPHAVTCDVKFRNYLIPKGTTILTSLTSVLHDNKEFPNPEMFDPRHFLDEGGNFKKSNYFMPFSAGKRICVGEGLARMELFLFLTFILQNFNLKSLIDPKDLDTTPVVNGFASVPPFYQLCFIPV

[4] = target: T1, Transient receptor potential cation channel subfamily V member 1; test: Antagonist activity against human TRPV1 assessed as inhibition of acid-induced calcium influx by FLIPR assay; format: functional
[5] = target: Transient receptor potential cation channel subfamily V member 1 (Rattus norvegicus, UniProt O35433); test: Antagonist activity against rat TRPV1 assessed as inhibition of acid-induced calcium influx by FLIPR assay; format: functional
Chain of Transient receptor potential cation channel subfamily V member 1 (Rattus norvegicus, UniProt O35433) (O35433 whole entry): as the sequence (O35433 whole entry) above

Cavia porcellus = test: Inhibition of Freund's complete adjuvant-induced inflammatory hyperalgesia in guinea pig at 30 mg/kg, sc; format: functional; conditions: route subcutaneous

T1 sequence (Q8NER1 whole entry): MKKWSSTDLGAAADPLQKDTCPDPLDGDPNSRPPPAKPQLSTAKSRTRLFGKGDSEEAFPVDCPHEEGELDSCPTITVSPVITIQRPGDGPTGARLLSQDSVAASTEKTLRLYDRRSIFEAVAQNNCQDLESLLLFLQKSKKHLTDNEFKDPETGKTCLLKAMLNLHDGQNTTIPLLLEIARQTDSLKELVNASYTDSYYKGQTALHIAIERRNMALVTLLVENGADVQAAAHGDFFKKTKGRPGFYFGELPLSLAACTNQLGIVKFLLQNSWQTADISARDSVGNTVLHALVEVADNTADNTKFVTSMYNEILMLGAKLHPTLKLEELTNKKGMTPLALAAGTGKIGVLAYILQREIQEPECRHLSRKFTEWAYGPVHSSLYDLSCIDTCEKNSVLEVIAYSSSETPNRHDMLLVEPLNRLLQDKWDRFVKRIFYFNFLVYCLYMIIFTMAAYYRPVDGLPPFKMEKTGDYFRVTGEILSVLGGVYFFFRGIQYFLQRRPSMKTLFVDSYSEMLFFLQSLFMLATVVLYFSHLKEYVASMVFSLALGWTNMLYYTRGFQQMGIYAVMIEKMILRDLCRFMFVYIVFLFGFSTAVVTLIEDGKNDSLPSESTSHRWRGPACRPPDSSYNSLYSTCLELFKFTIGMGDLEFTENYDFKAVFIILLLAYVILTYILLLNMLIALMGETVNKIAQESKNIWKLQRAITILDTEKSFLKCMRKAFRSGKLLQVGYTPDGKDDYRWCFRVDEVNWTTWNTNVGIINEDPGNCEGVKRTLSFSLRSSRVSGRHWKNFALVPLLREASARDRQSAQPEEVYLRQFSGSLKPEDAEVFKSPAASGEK

| pKb [1] | SMILES | further results |
| --- | --- | --- |
| < 6.8 | CN1CCCc2ccc(NC(=O)c3cccc(-c4ccccc4)c3)cc21 | – |
| 7.3 | COCCN1CCCc2ccc(NC(=O)c3ccc(-c4ccccc4)cc3)cc21 | – |
| 7 | CNS(=O)(=O)c1cccc(-c2ccc(C(=O)Nc3ccc4c(c3)N(C)CCC4)cc2)c1 | – |
| 7.2 | COCC(=O)N1CCCc2ccc(NC(=O)c3ccc(-c4ccccc4)cc3)cc21 | – |
| 6.9 | CC(=O)NCCN1CCCc2ccc(NC(=O)c3ccc(-c4ccccc4)cc3)cc21 | – |
| 7.7 | O=C(Nc1ccc2c(c1)NCCC2)c1ccc(-c2ccccc2)cc1 | – |
| 7.7 | O=C(Nc1cccc2cnccc12)c1ccc(-c2ccccc2)cc1 | – |
| 6.9 | O=C(Nc1ccc2ncccc2c1)c1ccc(-c2ccccc2)cc1 | – |
| 8 | Cc1ccc2ccc(NC(=O)c3ccc(-c4ccccc4)cc3)cc2n1 | – |
| < 6.5 | CN1CCCc2c(NC(=O)c3ccc(-c4ccccc4)cc3)cccc21 | – |
| 7.1 | CN1CCCc2cc(NC(=O)c3ccc(-c4ccccc4)cc3)ccc21 | – |
| 7.1 | CN(C)C(=O)c1ccc(-c2ccc(C(=O)Nc3ccc4c(c3)N(C)CCC4)cc2)cc1 | – |
| 7.4 | CN(C)CCN1CCCc2ccc(NC(=O)c3ccc(-c4ccccc4)cc3)cc21 | – |
| 8.5 | O=C(Nc1ccc2ccc(O)nc2c1)c1ccc(-c2ccccc2)cc1 | – |
| < 6.5 | O=C(Nc1cccc2cccnc12)c1ccc(-c2ccccc2)cc1 | – |
| 6.9 | CN1CCCc2ccc(NC(=O)c3ccc(-n4cccn4)cc3)cc21 | – |
| 7 | CC(=O)c1cccc(-c2ccc(C(=O)Nc3ccc4c(c3)N(C)CCC4)cc2)c1 | – |
| 7.8 | CN1CCCc2ccc(NC(=O)c3ccc(-c4ccccc4)nc3)cc21 | CL (Homo sapiens): 4 mL/min/g |
| 9.4 | O=C(Nc1ccc2cccnc2c1)c1ccc(-c2ccccc2)cc1 | – |

Second part, the molecule before the results:

| SMILES | pKb [1] | further results |
| --- | --- | --- |
| CN1CCCc2ccc(NC(=O)c3ccc(-c4ccccc4)s3)cc21 | 7 | – |
| CN1CCCc2ccc(NC(=O)c3cnc(-c4ccccc4)cn3)cc21 | < 6.8 | – |
| CN1CCCc2ccc(NC(=O)c3ccc(-c4ccsc4)cc3)cc21 | 7.8 | – |
| CN1CCCc2ccc(NC(=O)c3ccc(-c4cccs4)cc3)cc21 | 7.6 | – |
| CN1CCCc2ccc(NC(=O)c3ccc(-c4cnccn4)cc3)cc21 | 7.1 | – |
| CN1CCCc2ccc(NC(=O)c3ccc(-c4ccccc4)cc3)cc21 | 7.5 | CL (Homo sapiens): 7 mL/min/g |
| CN1CCCc2ccc(NC(=O)c3ccccc3-c3ccccc3)cc21 | < 6.6 | – |
| O=C(Nc1ccc2ccncc2c1)c1ccc(-c2ccccc2)cc1 | 7.4 | – |
| O=C(Nc1cccc2ncccc12)c1ccc(-c2ccccc2)cc1 | < 6.5 | – |
| CN1CCCc2ccc(NC(=O)c3ccc(-c4ccccc4)cc3Cl)cc21 | 7.1 | – |
| CC(=O)N1CCCc2ccc(NC(=O)c3ccc(-c4ccccc4)cc3)cc21 | 7.2 | – |
| Cc1cc(C(=O)Nc2ccc3c(c2)N(C)CCC3)ccc1-c1ccccc1 | 7.4 | – |
| COc1cc(-c2ccccc2)ccc1C(=O)Nc1ccc2c(c1)N(C)CCC2 | < 6.8 | – |
| CN1CCCc2cccc(NC(=O)c3ccc(-c4ccccc4)cc3)c21 | < 6.3 | – |
| O=C(Nc1ccc2cnccc2c1)c1ccc(-c2ccccc2)cc1 | 7.7 | – |
| CN1CCCc2ccc(NC(=O)c3ccc(-c4cncnc4)cc3)cc21 | 6.9 | – |
| O=C(Nc1ccc2cccnc2c1)c1ccc(-c2ccccc2)nc1 | – | pKb [2]: 8.4; IC50 (Cytochrome P450 2C9): > 18 µM; IC50 (Cytochrome P450 2D6): > 18 µM; IC50 (Cytochrome P450 3A4): > 18 µM; pKb [3]: 8.4; IC50 (Cytochrome P450 1A2): > 18 µM; IC50 (Cytochrome P450 2C19): > 18 µM; CL (Homo sapiens): < 5 mL/min/g; IC50 [4]: 0.00794 µM; IC50 [5]: 0.0251 µM; inhibition in vivo at 30 mg/kg (Cavia porcellus): 32% |
